Like-named read-outs stand apart in the source and are kept apart here.
Tests used:
AbHpaI [1] = format: physicochemical, Acinetobacter baumannii
AbHpaI [2] = format: binding, Acinetobacter baumannii
[3] = molecular target: 4-hydroxy-2-keto-heptane-1,7-dioate aldolase from Acinetobacter baumannii (Acinetobacter baumannii); assay: SEC; Superdex 200 Increase 10/300 GL, 10 mM HEPES pH 7.0 with 150 mM NaCl, 0.5 ml/min, 25 °C, calibrated with protein standards of 12.4-440 kDa
[4] = molecular target: 4-hydroxy-2-keto-heptane-1,7-dioate aldolase from Acinetobacter baumannii (Acinetobacter baumannii); assay: crystal structure; 11 structures of AbHpaI (apo and with M2+ and ligands), monoclinic C2 crystals, trimer per asymmetric unit, hexamer by twofold rotational symmetry; crystals grown with sodium acetate pH 4.6, CaCl2 and 30% MPD
AbHpaI•Zn^2+ [5] = format: biochemical, Acinetobacter baumannii
AbHpaI•Zn^2+ [6] = format: biochemical, Acinetobacter baumannii; remark: listed apart in the source
AbHpaI [7] = format: biochemical, Acinetobacter baumannii
AbHpaI•Zn^2+ [8] = assay: Steady-state aldol cleavage followed as substrate depletion by RapidFire high-throughput mass spectrometry in 10 mM HEPES pH 7.0 with 0.1 mM Zn2+ and 5 uM ((4R)-KDGal) or 40 uM ((4S)-KDGlu) enzyme, Michaelis-Menten fit.; format: biochemical
Procedure: The aldol cleavage steady-state kinetics of (4R)-KDGal and (4S)-KDGlu catalyzed by AbHpaI•Zn^2+ were carried out using RapidFire high-throughput mass spectrometry. The reactions contained 0.1 mM ZnCl2 and the purified AbHpaI in buffer H and varying concentrations of the substrate. […] Before RapidFire analysis, the reaction was quenched by an equal volume of ACN at various times (0.5–30 min) and the quenched solution was centrifuged at 12,000g for 10 min and filtered by a 0.22-μm nylon membrane syringe filter (FilterBio Nylon Syringe Filter) to obtain the filtrate of the remaining substrate. The substrate control reaction without the enzyme was performed. […] Peak areas of the remaining substrate were measured in a negative mode with a quantitative selected ion monitoring (SIM) mode to detect the m/z 177.0 ([M-H]^−) of both (4R)-KDGal and (4S)-KDGlu, and the concentrations were determined from the calibration plot of substrate standard concentrations (0.025–3.2 mM) versus peak areas. The initial velocity (νo) of the substrate depletion from each individual concentration of substrate was calculated from the slope of the plot between the remaining substrate and time. The plots of νo versus each substrate concentration were analyzed by Michaelis–Menten equation using the Levenberg–Marquardt algorithms in GraphPad Prism version 7 software (GraphPad Software, Inc) to determine Km and kcat.

BxBphI = conditions: cited from earlier work
AbHpaI [9] = format: physicochemical, Acinetobacter baumannii; remark: listed apart in the source
EcHpaI = conditions: cited from earlier work
AbHpaI•Co^2+ = assay: Isothermal titration calorimetry (MicroCal PEAQ-ITC) of 10 mM pyruvate into 40 uM apo-AbHpaI mixed with metal ion at 10 times its Kd, 50 mM HEPES pH 7.0, 25 °C, one-site binding model.
Procedure: (§1) The Kd values for the binding of AbHpaI with ligands including M^2+ ions (Zn^2+, Co^2+, Mn^2+, Mg^2+, and Ca^2+) and pyruvate were measured by MicroCal PEAQ-ITC technique (Malvern Panalytical). Briefly, a 10-ml solution of apo-AbHpaI (200 μM) was dialyzed in 2 l of buffer F at 4 °C for 16 to 18 h. The dialyzed buffer was used to prepare a stock solution of each ligand. To measure the Kd value for the AbHpaI•M^2+ complex, a 200-μl solution of the apo-AbHpaI (40 μM) was loaded into the sample cell and the Milli-Q Type I ultrapure water was used as a reference. Three microliters of 1.5 mM ligand solution of each M^2+ in a syringe was continuously titrated into the sample cell (0.3 μM per each injection for 13 injections) until the ligand binding reached an equilibrium at 25 °C. The Microcal PEAQ-ITC analysis software was used to calculate the Kd using the one-site binding model. To determine the pyruvate binding constant to AbHpaI, a 200-μl solution of the apo-AbHpaI (40 μM) was placed in the sample cell and sequentially titrated with 3 μl of 10 mM pyruvate solution from a syringe. To determine the pyruvate binding constant to the AbHpaI•M^2+ complex, a 200-μl solution of the mixture of apo-AbHpaI (40 μM) and 10 Kd of each M^2+ was placed in the sample cell and sequentially titrated with 3 μl of a 10 mM solution mixture of pyruvate and 10 Kd of each M^2+.

AbHpaI•Mn^2+ = assay: as above
Procedure: as §1

AbHpaI•Zn^2+ [10] = assay: as above
Procedure: as §1

AbHpaI•Zn^2+ [11] = conditions: read-out: Km (mM), aldol condensation of (4R)-KDGal synthesis, D-glyceraldehyde varied

CO [MeOH, methanol]
protein stability of AbHpaI perturbed (AbHpaI [1]): 10%

[Ca+2] [Ca^2+]
mole ratio of metal ion per AbHpaI (AbHpaI [2]): 0.1

4-hydroxy-2-keto-heptane-1,7-dioate aldolase from Acinetobacter baumannii (enzyme)
stoichiometry N [3]: 6
stoichiometry N [4]: 6

O=C(O)C(=O)CC(O)C(O)CO [(4R)-KDGal, (4R)-2-keto-3-deoxy-D-galactonate]
turnover number of (4R)-KDGal synthesis (AbHpaI•Zn^2+ [5]): ~1.67 s⁻¹
Km (AbHpaI•Zn^2+ [6]): 300 ± 100 µM
kcat (AbHpaI•Zn^2+ [6]): 0.05 ± 0.005 s⁻¹
kcat of cleavage, fold faster than (4S)-KDGlu (AbHpaI•Zn^2+ [6]): 18 fold
kcat/Km of cleavage, fold greater than (4S)-KDGlu (AbHpaI•Zn^2+ [6]): about 36 fold

[Mg+2] [Mg^2+]
mole ratio of metal ion per AbHpaI (AbHpaI [2]): 0.6

O=C(O)C(=O)C[C@H](O)[C@H](O)CO [(4S)-KDGlu, (4S)-2-keto-3-deoxy-D-gluconate]
(4S)-KDGlu formation as compared to (4R)-KDGal (AbHpaI [7]): 0.1%
kcat (AbHpaI•Zn^2+ [6]): 0.00283 ± 0.00017 s⁻¹
Km (AbHpaI•Zn^2+ [8]): 0.6 ± 0.1 mM

C[C@H](O)CC(=O)C(=O)O [(4S)-HOPA, 4-hydroxy-2-oxopentanoate]
turnover number, aldol cleavage (BxBphI): 4 s⁻¹
turnover number, condensation (BxBphI): 0.9 s⁻¹

O=C(O)C(=O)C[C@@H](O)[C@H](O)CO [(4R)-KDGal, (4R)-2-keto-3-deoxy-D-galactonate]
Km (AbHpaI•Zn^2+ [8]): 0.3 ± 0.1 mM

[Mn+2] [Mn^2+]
mole ratio of metal ion per AbHpaI (AbHpaI [2]): 0.6
ΔTm (AbHpaI [9]): 1.7 °C

[Co+2] [Co^2+]
mole ratio of metal ion per AbHpaI (AbHpaI [2]): 0.8
ΔTm (AbHpaI [9]): 3.4 °C

[Zn+2] [Zn^2+]
mole ratio of metal ion per AbHpaI (AbHpaI [2]): 1.1
Tm (AbHpaI [9]): 87 °C
ΔTm (AbHpaI [9]): 5.7 °C

CC(=O)C(=O)O [Pyruvate, pyruvate]
pKa of pyruvate C3-methyl (EcHpaI): ~6.5
Km (AbHpaI•Zn^2+ [5]): 1600 ± 700 µM
kcat (AbHpaI•Zn^2+ [5]): 1.713 ± 0.265 s⁻¹
Kd (AbHpaI•Co^2+): 320 ± 40 µM
Kd (AbHpaI•Mn^2+): 1320 ± 500 µM
Kd (AbHpaI•Zn^2+ [10]): 980 ± 60 µM

CC#N [ACN, acetronitrile]
protein stability of AbHpaI perturbed (AbHpaI [1]): 10%

C[S+](C)[O-] [DMSO, dimethylsulfoxide]
protein stability of AbHpaI perturbed (AbHpaI [1]): 10%

O=C[C@H](O)CO [D-Glyceraldehyde, D-glyceraldehyde]
kcat (AbHpaI•Zn^2+ [5]): 2.048 ± 0.293 s⁻¹
Km (AbHpaI•Zn^2+ [11]): 10.6 ± 3.6 mM

Reference: paper PMC8560999 (The Journal of Biological Chemistry, 2021)
